Measurements: patent US20040147723A1, “Moringa seed proteins” (priority 2001, published 2004)
Converted amounts (≈) assume the structure as drawn. Where no end group is shown, it is not given here.

Tests used:
[1] = tested on: L. pneumophilia serogroup 10; assay: MIC/MBC in 96-well micro plaque, BYEα medium; type: cell-based
Experimental: (§1) Source of bacteria: The bacteria were isolated from drinking water of hospitals in Ticino, patient strains were obtained from the laboratory of microbiology at the CHUV.
(§2) MIC (minimal inhibitory concentration): MIC was measured with the help of a micro plaque with 96 wells, each containing 100 μl. The growth media were BYEα for L. pneumophilia and TSB for Mycobacterium and were containing a certain concentration of the peptide or antibiotic.
(§3) The media were then subjected to twofold dilutions (1 μl of bacterial suspension at a concentration of 5*10^8 CFU/ml diluted to 5*10^6 CFU/ml).
(§4) The L. pneumophilia culture was incubated at 35° C. and the results were read after 48 and 96 hours. The Mycobacterium culture was incubated at 30° C. for up to seven days.
(§5) MIC is the first well […].
(§6) MBC (minimal bactericidal concentration): 50 μl of the above suspensions were plated on solid media BCYEα or agar with blood. The L. pneumophilia culture was incubated at 35° C. for 48 hours and up to seven days for Mycobacterium.
(§7) The MBC value is the first plate without growth.

[2] = tested on: L. pneumophilia serogroup 1; assay: MIC/MBC in 96-well micro plaque, BYEα medium; type: cell-based
Experimental: as §1, §2, §3, §4, §5, §6, §7

[3] = Coagulation test (glass bead suspension sedimentation); details: 20 μg/ml, glass beads
Experimental: The test was carried out in a 2 ml volume in a spectrophotometer cell (104QS/HELLMA). To evaluate the coagulation activity, 100 mg/ml suspension of 3.5-7 μm diameter glass beads (Sheriglass 5000, Potters-Ballotini) were diluted in 50 mM phosphate buffer, pH=7.0, to mimic turbid water. Stirring was kept continuously at 800 rpm and OD 500 nm was measured each second (LabVIEW sfotware/National Instruments Corporation) in a Perkin-Elmer 552 spectrophotometer. After 5 minutes of continuous stirring the compound to be tested was added to a final concentration of 20 μg/ml, and stirring was continued for 15 minutes. Active compounds were diluted before the test either in phosphate buffer 10 mM, pH=7.0 (E proteins, PHYTOFLOC and bacterially produced Flo) or in distilled water (synthetic Flo).
To quantify the flocculation efficiency a linear regression was performed on time points corresponding to four minutes before the addition of the flocculating preparation (basal sedimentation) and four minutes after the addition of the flocculating preparation (coagulation-mediated sedimentation). The difference between the coagulation-mediated and basal sedimentation was calculated by subtraction in OD per minutes and multiplied by 1000 (Δ slope).
To assess particle coagulation properties of Flo, a suspension of glass beads under continuous mixing was used to mimic turbid water. […]

E.coli ER2566 = details: ER2566, 2 h
Experimental: E.coli ER2566 was grown in LB medium to the exponential phase (A600=0.5-0.6) at 37° C. as above. The culture was centrifuged and resuspended in a same volume of 10 mM phosphate buffer pH=7.0, and E proteins, PHYTOFLOC (2 mg/ml), synthetic Flo (0.1 mg/ml to 2 mg/ml) carrier (buffer) or BSA (2 mg/ml) were added. After 2 hours incubation at 37° C., LB was added to the bacteria culture to obtain A600=0.1. All cultures were incubated at 37° C. at 200 rpm and the culture growth was followed through A600 measurements.
An exponential phase E.coli culture was centrifuged and incubated for 2 hrs at 37° C. in phosphate buffer alone (♦), or in phosphate buffer supplemented by the PHYTOFLOC extract (σ) or by synthetic Flo (ν) at a final concentration of 2 mg/ml. Bacteria were then diluted to A600=0.1 in LB growth medium and incubated at 37° C. under agitation. Optical density measurements were then recorded as indicated at 600 nm.
B. Exponentially growing E.coli culture was processed as indicated in (A) except that bacteria were incubated with different concentrations of synthetic Flo in mg/ml: 0 (ν), 0.1 (σ), 0.25 (O), 0.5 (Σ), 1 (λ) or 2 (B). BSA at 2 mg/ml was used as a non specific protein control (♦).

Row | Compound | MBC ([1]; L. pneumophilia serogroup 10) [µg/mL] | MIC ([1]; L. pneumophilia serogroup 10, 35° C.) [µg/mL] | MBC [2] [µg/mL] | MIC [2] [µg/mL] | specific coagulation activity compared with PHYTOFLOC [3] | IC50 of antibacterial growth response (E.coli ER2566)
1 | O=C(O)c1cn(C2CC2)c2cc(N3CCNCC3)c(F)cc2c1=O [Ciprofloxacin] | 16 to 30 (≈ 48.3 to 90.5 µM) | 16 (≈ 48.3 µM) | 30 to 60 (≈ 90.5 to 181 µM) | 30 (≈ 90.5 µM) |  | 
2 | QGPGRQPDFQRCGQQLRNISPPQRCPSLRQAVQLTHQQQGQVGPQQVRQMYRVASNIPST (cysteines drawn unpaired) [synthetic Flo] |  |  |  |  | higher | approximately 100 μg/ml
